This passage reports IC50 results from patent US20100076015A1, “Aminopyridine Derivatives” (VANTIA LIMITED, priority 2008, published 2010).

Structures are written as SMILES.

T1 sequence (P06870 25-262): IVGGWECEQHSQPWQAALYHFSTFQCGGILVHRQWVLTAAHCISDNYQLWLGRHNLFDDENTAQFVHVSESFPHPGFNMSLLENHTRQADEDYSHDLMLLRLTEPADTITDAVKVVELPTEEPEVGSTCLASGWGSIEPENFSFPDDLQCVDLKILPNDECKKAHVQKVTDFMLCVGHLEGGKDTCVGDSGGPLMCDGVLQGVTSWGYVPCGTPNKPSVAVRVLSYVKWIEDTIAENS

This experiment addresses T1, Human KLK1 (Homo sapiens, UniProt P06870).
T1 construct: purchased Callbiochem (Calbiochem)
Kind of experiment: Determination of the IC50 for KLK1 (fluorogenic substrate H-DVal-Leu-Arg-AFC). Particulars: 37° C. Format: biochemical. As for the experimental part:
Determination of the IC50 for KLK1
KLK1 inhibitory activity in vitro was determined using standard published methods (see e.g. Johansen et al., Int. J. Tiss. Reac. 1986, 8, 185; Shori et al., Biochem. Pharmacol., 1992, 43, 1209; Stürzebecher et al., Biol. Chem. Hoppe-Seyler, 1992, 373, 1025). Human KLK1 (Callbiochem) was incubated at 37° C. with the fluorogenic substrate H-DVal-Leu-Arg-AFC and various concentrations of the test compound. Residual enzyme activity (initial rate of reaction) was determined by measuring the change in optical absorbance at 410 nm and the IC50 value for the test compound was determined.
Compound `CCC(C)[C@@H](NC)C(=O)N[C@@H](Cc1cccc(Cl)c1)C(=O)NCc1ccc(N)nc1` (stereo partly drawn) [Example 45, (R)-3-Methyl-2-methylamino-pentanoic acid [(S)-1-[(6-amino-pyridin-3-ylmethyl)-carbamoyl]-2-(3-chloro-phenyl)-ethyl]-amide] returned an IC50 of 3.1 nM.

In the case of `Nc1ccc(CNC(=O)[C@H](Cc2ccc(F)c(F)c2)NC(=O)[C@H](N)Cc2ccccc2)cn1` [Example 80, (R)-2-Amino-N-[(S)-1-[(6-amino-pyridin-3-ylmethyl)-carbamoyl]-2-(3,4-difluoro-phenyl)-ethyl]-3-phenyl-propionamide], half-maximal inhibition (IC50) was put at 16.1 nM.

Compound `Cc1cccc(C[C@H](NC(=O)c2cc3ccccc3[nH]2)C(=O)NCc2ccc(N)nc2C)c1` [Example 319, 1H-Indole-2-carboxylic acid {(S)-1-[(6-amino-2-methyl-pyridin-3-ylmethyl)-carbamoyl]-2-m-tolyl-ethyl}-amide] showed an IC50 of 110 nM.

Take `CCC(C)[C@H](C(=O)N[C@@H](Cc1cc(F)cc(F)c1)C(=O)NCc1ccc(N)nc1)N(C)C` (stereo partly drawn) [Example 424, (R)-2-Dimethylamino-3-methyl-pentanoic acid [(S)-1-[(6-amino-pyridin-3-ylmethyl)-carbamoyl]-2-(3,5-difluoro-phenyl)-ethyl]-amide]: 28 nM corresponded to half-maximal inhibition (IC50).

The compound `CN[C@@H](C)C(=O)N[C@@H](Cc1ccc(F)c(F)c1)C(=O)NCc1ccc(N)nc1` [Example 85, (S)—N-[(S)-1-[(6-Amino-pyridin-3-ylmethyl)-carbamoyl]-2-(3,4-difluoro-phenyl)-ethyl]-2-methylamino-propionamide] yielded an IC50 of 13.9 nM.

As for `CCC(C)[C@@H](N)C(=O)N[C@@H](CC1CCCC2CCCCC21)C(=O)NCc1ccc(N)nc1C` (stereo partly drawn) [Example 187, (R)-2-Amino-3-methyl-pentanoic acid [(S)-1-[(6-amino-2-methyl-pyridin-3-ylmethyl)-carbamoyl]-2-(decahydro-naphthalen-1-yl)-ethyl]-amide], the midpoint of inhibition, the IC50, lay at 0.71 nM.

`CN1CCC[C@@H]1C(=O)N[C@@H](CC1CCCC2CCCCC21)C(=O)NCc1ccc(N)nc1` (stereo partly drawn) [Example 396, (R)-1-Methyl-pyrrolidine-2-carboxylic acid [(S)-1-[(6-amino-pyridin-3-ylmethyl)-carbamoyl]-2-(decahydro-naphthalen-1-yl)-ethyl]-amide] registered an IC50 of 1.4 nM.

For `Cc1c[nH]c(C(=O)N[C@@H](Cc2cccc(Cl)c2)C(=O)NCc2ccc(N)nc2)c1` [Example 259, 4-Methyl-1H-pyrrole-2-carboxylic acid [(S)-1-[(6-amino-pyridin-3-ylmethyl)-carbamoyl]-2-(3-chloro-phenyl)-ethyl]-amide], the IC50 was found to be 85.4 nM.

`Nc1ccc(CNC(=O)[C@H](Cc2ccc(Cl)c(Cl)c2)NC(=O)[C@H]2CC(F)(F)CN2)cn1` [Example 66, (R)-4,4-Difluoro-pyrrolidine-2-carboxylic acid [(S)-1-[(6-amino-pyridin-3-ylmethyl)-carbamoyl]-2-(3,4-dichloro-phenyl)-ethyl]-amide] came in with an IC50 of 20.7 nM.

`CN1CCC[C@@H]1C(=O)N[C@@H](Cc1cccc(Cl)c1)C(=O)NCc1ccc(N)nc1` [Example 103, (R)-1-Methyl-pyrrolidine-2-carboxylic acid [(S)-1-[(6-amino-pyridin-3-ylmethyl)-carbamoyl]-2-(3-chloro-phenyl)-ethyl]-amide]: half-maximal inhibition (IC50) was put at 5.4 nM.

The compound `CN[C@@H](C)C(=O)N[C@@H](Cc1ccc(F)cc1)C(=O)NCc1ccc(N)nc1` [Example 88, (S)—N-[(S)-1-[(6-Amino-pyridin-3-ylmethyl)-carbamoyl]-2-(4-fluoro-phenyl)-ethyl]-2-methylamino-propionamide] showed an IC50 of 6.7 nM.

For `Nc1ccc(CNC(=O)[C@H](Cc2cccc(F)c2)NC(=O)c2ncc[nH]2)cn1` [Example 288, 1H-Imidazole-2-carboxylic acid [(S)-1-[(6-amino-pyridin-3-ylmethyl)-carbamoyl]-2-(3-fluoro-phenyl)-ethyl]-amide], the IC50 was found to be 93.2 nM.

The compound `CCCCN(C)[C@@H](C)C(=O)N[C@@H](Cc1ccc(F)c(F)c1)C(=O)NCc1ccc(N)nc1` [Example 347, (S)—N-[(S)-1-[(6-Amino-pyridin-3-ylmethyl)-carbamoyl]-2-(3,4-difluoro-phenyl)-ethyl]-2-(butyl-methyl-amino)-propionamide] came in with an IC50 of 24.5 nM.

In turn, `CCCN(CCC)CC(=O)N[C@@H](Cc1ccc(F)c(F)c1)C(=O)NCc1ccc(N)nc1` [Example 158, (S)—N-(6-Amino-pyridin-3-ylmethyl)-3-(3,4-difluoro-phenyl)-2-(2-dipropylamino-acetylamino)-propionamide] had an IC50 of 114 nM.

`Nc1ccc(CNC(=O)[C@H](Cc2cccc3ccccc23)NC(=O)c2cc3ccccc3[nH]2)cn1` [Example 298, 1H-Indole-2-carboxylic acid {(S)-1-[(6-amino-pyridin-3-ylmethyl)-carbamoyl]-2-naphthalen-1-yl-ethyl}-amide] had an IC50 of 9.4 nM. Against the preceding compound, the IC50 is about 12-fold lower.

Regarding `Nc1ccc(CNC(=O)[C@H](Cc2cccc(C(F)(F)F)c2)NC(=O)c2ccc(C(=O)O)[nH]2)cn1` [Example 275, 5-[(S)-1-[(6-Amino-pyridin-3-ylmethyl)-carbamoyl]-2-(3-trifluoromethyl-phenyl)-ethylcarbamoyl]-1H-pyrrole-2-carboxylic acid], the IC50 was 147 nM. This IC50 is about 16-fold higher than that of the compound before.

For the compound `COc1ccc2[nH]c(C(=O)N[C@@H](Cc3ccc(Cl)c(Cl)c3)C(=O)NCc3ccc(N)nc3C)cc2c1` [Example 321, 5-Methoxy-1H-indole-2-carboxylic acid [(S)-1-[(6-amino-2-methyl-pyridin-3-ylmethyl)-carbamoyl]-2-(3,4-dichloro-phenyl)-ethyl]-amide], the IC50 was 85.4 nM.

In turn, `Nc1ccc(CNC(=O)[C@H](NC(=O)[C@@H]2CCCN2)C(C2CCCCC2)C2CCCCC2)cn1` [Example 215, (S)-Pyrrolidine-2-carboxylic acid {(R)-1-[(6-amino-pyridin-3-ylmethyl)-carbamoyl]-2,2-dicyclohexyl-ethyl}-amide] registered an IC50 of 12.6 nM.

Turning to `CCC(C)[C@@H](N)C(=O)N[C@@H](C(=O)NCc1ccc(N)nc1)C(C1CCCCC1)C1CCCCC1` (stereo partly drawn) [Example 214, (R)-2-Amino-3-methyl-pentanoic acid {(R)-1-[(6-amino-pyridin-3-ylmethyl)-carbamoyl]-2,2-dicyclohexyl-ethyl}-amide], the IC50 was 16.9 nM. The IC50 values of the last two compounds are within 1.5-fold of each other.

`CCC(C)[C@H](NC)C(=O)N[C@@H](Cc1ccc(F)c(F)c1)C(=O)NCc1ccc(N)nc1` (stereo partly drawn) [Example 82, (S)-3-Methyl-2-methylamino-pentanoic acid [(S)-1-[(6-amino-pyridin-3-ylmethyl)-carbamoyl]-2-(3,4-difluoro-phenyl)-ethyl]-amide]: the half-inhibitory concentration (IC50) was determined as 11.2 nM.

In turn, `CN1CCC[C@H]1C(=O)N[C@@H](CC1CCCCC1)C(=O)NCc1ccc(N)nc1` [Example 382, (S)-1-Methyl-pyrrolidine-2-carboxylic acid {(S)-1-[(6-amino-pyridin-3-ylmethyl)-carbamoyl]-2-cyclohexyl-ethyl}-amide] gave an IC50 of 48.6 nM. Against the preceding compound, the IC50 is about 4.3-fold higher.

Take `COc1ccc2[nH]c(C(=O)N[C@@H](Cc3ccc(F)cc3)C(=O)NCc3ccc(N)nc3)cc2c1` [Example 332, 5-Methoxy-1H-indole-2-carboxylic acid [(S)-1-[(6-amino-pyridin-3-ylmethyl)-carbamoyl]-2-(4-fluoro-phenyl)-ethyl]-amide]: the IC50 came to 21.5 nM.

As for `Nc1ccc(CNC(=O)[C@H](Cc2ccc(F)c(F)c2)NC(=O)CN2CCCCC2)cn1` [Example 170, (S)—N-(6-Amino-pyridin-3-ylmethyl)-3-(3,4-difluoro-phenyl)-2-(2-piperidin-1-yl-acetylamino)-propionamide], the midpoint of inhibition, the IC50, lay at 16.6 nM.

`CCC(C)[C@H](C(=O)N[C@@H](Cc1ccc(Cl)c(Cl)c1)C(=O)NCc1ccc(N)nc1)N(C)S(C)(=O)=O` (stereo partly drawn) [Example 8, (R)-2-(Methanesulfonyl-methyl-amino)-3-methyl-pentanoic acid [(S)-1-[(6-amino-pyridin-3-ylmethyl)-carbamoyl]-2-(3,4-dichloro-phenyl)-ethyl]-amide] registered an IC50 of 1.7 nM.

The compound `Nc1ccc(CNC(=O)[C@H](Cc2cc(F)c(F)cc2F)NC(=O)c2cc3ccccc3[nH]2)cn1` [Example 324, 1H-Indole-2-carboxylic acid [(S)-1-[(6-amino-pyridin-3-ylmethyl)-carbamoyl]-2-(2,4,5-trifluoro-phenyl)-ethyl]-amide] returned an IC50 of 68.4 nM.

For the compound `C[C@@H](C(=O)N[C@@H](Cc1ccc(Cl)c(Cl)c1)C(=O)NCc1ccc(N)nc1)N1CCCCC1` [Example 403, (S)—N-[(S)-1-[(6-Amino-pyridin-3-ylmethyl)-carbamoyl]-2-(3,4-dichloro-phenyl)-ethyl]-2-piperidin-1-yl-propionamide], the IC50 is 1.1 nM.

For the compound `Cc1nc(N)ccc1CNC(=O)[C@H](Cc1ccc(Cl)c(Cl)c1)NC(=O)c1cc2ccccc2[nH]1` [Example 320, 1H-Indole-2-carboxylic acid [(S)-1-[(6-amino-2-methyl-pyridin-3-ylmethyl)-carbamoyl]-2-(3,4-dichloro-phenyl)-ethyl]-amide], half-maximal inhibition (IC50) was put at 98.5 nM.

In turn, `CN1CCC[C@@H]1C(=O)N[C@@H](Cc1ccccc1)C(=O)NCc1ccc(N)nc1` [Example 101, (R)-1-Methyl-pyrrolidine-2-carboxylic acid {(S)-1-[(6-amino-pyridin-3-ylmethyl)-carbamoyl]-2-phenyl-ethyl}-amide] showed an IC50 of 24.1 nM. This IC50 lies about 4.1-fold lower than the previous one.

`CC(C)C[C@H](NC(=O)[C@H](C)N(C)C(C)C)C(=O)NCc1ccc(N)nc1` [Example 427, (S)-2-[(S)-2-(Isopropyl-methyl-amino)-propionylamino]-4-methyl-pentanoic acid (6-amino-pyridin-3-ylmethyl)-amide] had an IC50 of 106 nM.
